Some results are limits rather than exact numbers.

One assay concerns the target T1, CBP (Homo sapiens, UniProt Q92793).
T1 construct: host or cells: A549 CBP HiBit cells
As to the kind of experiment: CBP degradation, HiBit technology in A549 CBP HiBit cells (24 h). Type of assay: cell-based. The conditions noted are these: 24 hrs post treatment. The essentials: (§1)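 Degradation potency and Dmax came from HiBiT luminescence in tagged A549 cells treated with serially diluted compound (DMSO stocks at 10 mM) after overnight equilibration in F-12K with 10% heat-inactivated FBS.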
In general terms: With HiBiT, luminescence reflects the tagged protein that the partner subunit can reach.

The target of the next assay is T2, p300 (Homo sapiens, UniProt Q09472).
T2 construct: host or cells: A549 P300 HiBit cells
Description: P300 degradation, HiBit technology in A549 P300 HiBit cells (2 h). Type of assay: cell-based. The conditions noted are these: 2 hrs post treatment; for Dmax: A549, A549 P300 HiBit cells; for DC50: A549 P300 HiBit cells. The essentials:
as §1

T1 sequence (Q92793 whole entry): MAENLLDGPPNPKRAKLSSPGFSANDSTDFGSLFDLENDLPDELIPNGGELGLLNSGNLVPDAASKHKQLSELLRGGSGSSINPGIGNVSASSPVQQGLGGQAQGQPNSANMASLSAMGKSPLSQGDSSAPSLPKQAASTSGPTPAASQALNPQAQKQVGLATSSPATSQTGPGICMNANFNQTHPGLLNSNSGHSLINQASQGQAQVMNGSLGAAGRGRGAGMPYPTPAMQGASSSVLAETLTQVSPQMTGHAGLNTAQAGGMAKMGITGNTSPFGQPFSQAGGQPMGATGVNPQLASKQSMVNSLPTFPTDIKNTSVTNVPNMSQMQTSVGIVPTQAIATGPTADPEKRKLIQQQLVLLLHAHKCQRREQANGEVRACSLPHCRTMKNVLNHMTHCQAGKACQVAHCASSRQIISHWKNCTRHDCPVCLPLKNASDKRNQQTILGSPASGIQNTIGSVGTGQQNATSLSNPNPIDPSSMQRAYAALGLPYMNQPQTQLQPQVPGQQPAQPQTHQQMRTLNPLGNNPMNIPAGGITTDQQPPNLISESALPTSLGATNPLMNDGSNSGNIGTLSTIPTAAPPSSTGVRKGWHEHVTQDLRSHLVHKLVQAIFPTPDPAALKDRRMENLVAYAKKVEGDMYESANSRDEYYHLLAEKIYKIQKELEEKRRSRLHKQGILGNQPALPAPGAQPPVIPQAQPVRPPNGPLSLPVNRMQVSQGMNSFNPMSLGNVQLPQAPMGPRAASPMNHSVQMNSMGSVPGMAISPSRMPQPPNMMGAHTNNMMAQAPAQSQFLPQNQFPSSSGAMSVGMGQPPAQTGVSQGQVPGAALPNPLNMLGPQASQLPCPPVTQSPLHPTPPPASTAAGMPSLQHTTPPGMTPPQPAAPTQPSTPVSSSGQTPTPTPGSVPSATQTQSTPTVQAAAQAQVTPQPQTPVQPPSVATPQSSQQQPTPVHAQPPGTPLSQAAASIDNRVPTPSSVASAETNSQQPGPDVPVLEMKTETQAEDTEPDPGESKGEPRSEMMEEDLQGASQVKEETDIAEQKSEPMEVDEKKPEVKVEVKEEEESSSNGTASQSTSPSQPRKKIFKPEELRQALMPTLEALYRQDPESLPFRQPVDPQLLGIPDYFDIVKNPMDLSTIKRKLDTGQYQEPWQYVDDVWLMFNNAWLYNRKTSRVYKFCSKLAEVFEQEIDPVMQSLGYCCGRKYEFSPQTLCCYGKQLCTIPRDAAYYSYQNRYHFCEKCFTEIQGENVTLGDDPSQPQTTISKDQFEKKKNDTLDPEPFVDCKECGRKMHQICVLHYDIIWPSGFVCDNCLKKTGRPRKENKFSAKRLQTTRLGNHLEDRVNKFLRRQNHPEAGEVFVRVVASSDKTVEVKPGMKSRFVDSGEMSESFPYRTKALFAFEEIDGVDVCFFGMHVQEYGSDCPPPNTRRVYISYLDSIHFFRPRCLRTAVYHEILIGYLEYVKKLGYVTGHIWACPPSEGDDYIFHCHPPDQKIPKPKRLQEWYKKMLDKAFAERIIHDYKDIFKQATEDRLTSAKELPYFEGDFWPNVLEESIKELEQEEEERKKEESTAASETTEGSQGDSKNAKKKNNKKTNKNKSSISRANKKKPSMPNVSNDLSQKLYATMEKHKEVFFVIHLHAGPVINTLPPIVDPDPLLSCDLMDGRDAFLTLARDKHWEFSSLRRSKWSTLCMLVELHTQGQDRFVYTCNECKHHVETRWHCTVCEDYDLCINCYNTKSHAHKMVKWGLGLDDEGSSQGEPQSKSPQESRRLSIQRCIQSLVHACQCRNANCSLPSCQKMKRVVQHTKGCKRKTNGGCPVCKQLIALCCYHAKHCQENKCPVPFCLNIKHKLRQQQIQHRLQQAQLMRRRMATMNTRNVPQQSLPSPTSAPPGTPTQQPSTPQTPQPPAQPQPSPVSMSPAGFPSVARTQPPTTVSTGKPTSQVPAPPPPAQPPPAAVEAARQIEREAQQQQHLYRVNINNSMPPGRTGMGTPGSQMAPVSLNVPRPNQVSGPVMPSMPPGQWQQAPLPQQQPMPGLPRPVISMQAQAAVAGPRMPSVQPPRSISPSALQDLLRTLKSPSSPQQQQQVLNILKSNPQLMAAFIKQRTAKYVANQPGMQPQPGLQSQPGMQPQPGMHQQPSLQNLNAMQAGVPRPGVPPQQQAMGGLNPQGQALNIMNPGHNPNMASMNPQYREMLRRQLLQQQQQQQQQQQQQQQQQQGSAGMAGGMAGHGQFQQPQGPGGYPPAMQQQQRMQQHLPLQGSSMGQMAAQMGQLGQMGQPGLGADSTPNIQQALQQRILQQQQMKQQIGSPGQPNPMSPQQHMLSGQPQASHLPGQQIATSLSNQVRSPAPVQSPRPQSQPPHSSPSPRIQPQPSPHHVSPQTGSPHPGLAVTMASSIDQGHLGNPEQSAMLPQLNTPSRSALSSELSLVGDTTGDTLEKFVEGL
T2 sequence (Q09472 whole entry): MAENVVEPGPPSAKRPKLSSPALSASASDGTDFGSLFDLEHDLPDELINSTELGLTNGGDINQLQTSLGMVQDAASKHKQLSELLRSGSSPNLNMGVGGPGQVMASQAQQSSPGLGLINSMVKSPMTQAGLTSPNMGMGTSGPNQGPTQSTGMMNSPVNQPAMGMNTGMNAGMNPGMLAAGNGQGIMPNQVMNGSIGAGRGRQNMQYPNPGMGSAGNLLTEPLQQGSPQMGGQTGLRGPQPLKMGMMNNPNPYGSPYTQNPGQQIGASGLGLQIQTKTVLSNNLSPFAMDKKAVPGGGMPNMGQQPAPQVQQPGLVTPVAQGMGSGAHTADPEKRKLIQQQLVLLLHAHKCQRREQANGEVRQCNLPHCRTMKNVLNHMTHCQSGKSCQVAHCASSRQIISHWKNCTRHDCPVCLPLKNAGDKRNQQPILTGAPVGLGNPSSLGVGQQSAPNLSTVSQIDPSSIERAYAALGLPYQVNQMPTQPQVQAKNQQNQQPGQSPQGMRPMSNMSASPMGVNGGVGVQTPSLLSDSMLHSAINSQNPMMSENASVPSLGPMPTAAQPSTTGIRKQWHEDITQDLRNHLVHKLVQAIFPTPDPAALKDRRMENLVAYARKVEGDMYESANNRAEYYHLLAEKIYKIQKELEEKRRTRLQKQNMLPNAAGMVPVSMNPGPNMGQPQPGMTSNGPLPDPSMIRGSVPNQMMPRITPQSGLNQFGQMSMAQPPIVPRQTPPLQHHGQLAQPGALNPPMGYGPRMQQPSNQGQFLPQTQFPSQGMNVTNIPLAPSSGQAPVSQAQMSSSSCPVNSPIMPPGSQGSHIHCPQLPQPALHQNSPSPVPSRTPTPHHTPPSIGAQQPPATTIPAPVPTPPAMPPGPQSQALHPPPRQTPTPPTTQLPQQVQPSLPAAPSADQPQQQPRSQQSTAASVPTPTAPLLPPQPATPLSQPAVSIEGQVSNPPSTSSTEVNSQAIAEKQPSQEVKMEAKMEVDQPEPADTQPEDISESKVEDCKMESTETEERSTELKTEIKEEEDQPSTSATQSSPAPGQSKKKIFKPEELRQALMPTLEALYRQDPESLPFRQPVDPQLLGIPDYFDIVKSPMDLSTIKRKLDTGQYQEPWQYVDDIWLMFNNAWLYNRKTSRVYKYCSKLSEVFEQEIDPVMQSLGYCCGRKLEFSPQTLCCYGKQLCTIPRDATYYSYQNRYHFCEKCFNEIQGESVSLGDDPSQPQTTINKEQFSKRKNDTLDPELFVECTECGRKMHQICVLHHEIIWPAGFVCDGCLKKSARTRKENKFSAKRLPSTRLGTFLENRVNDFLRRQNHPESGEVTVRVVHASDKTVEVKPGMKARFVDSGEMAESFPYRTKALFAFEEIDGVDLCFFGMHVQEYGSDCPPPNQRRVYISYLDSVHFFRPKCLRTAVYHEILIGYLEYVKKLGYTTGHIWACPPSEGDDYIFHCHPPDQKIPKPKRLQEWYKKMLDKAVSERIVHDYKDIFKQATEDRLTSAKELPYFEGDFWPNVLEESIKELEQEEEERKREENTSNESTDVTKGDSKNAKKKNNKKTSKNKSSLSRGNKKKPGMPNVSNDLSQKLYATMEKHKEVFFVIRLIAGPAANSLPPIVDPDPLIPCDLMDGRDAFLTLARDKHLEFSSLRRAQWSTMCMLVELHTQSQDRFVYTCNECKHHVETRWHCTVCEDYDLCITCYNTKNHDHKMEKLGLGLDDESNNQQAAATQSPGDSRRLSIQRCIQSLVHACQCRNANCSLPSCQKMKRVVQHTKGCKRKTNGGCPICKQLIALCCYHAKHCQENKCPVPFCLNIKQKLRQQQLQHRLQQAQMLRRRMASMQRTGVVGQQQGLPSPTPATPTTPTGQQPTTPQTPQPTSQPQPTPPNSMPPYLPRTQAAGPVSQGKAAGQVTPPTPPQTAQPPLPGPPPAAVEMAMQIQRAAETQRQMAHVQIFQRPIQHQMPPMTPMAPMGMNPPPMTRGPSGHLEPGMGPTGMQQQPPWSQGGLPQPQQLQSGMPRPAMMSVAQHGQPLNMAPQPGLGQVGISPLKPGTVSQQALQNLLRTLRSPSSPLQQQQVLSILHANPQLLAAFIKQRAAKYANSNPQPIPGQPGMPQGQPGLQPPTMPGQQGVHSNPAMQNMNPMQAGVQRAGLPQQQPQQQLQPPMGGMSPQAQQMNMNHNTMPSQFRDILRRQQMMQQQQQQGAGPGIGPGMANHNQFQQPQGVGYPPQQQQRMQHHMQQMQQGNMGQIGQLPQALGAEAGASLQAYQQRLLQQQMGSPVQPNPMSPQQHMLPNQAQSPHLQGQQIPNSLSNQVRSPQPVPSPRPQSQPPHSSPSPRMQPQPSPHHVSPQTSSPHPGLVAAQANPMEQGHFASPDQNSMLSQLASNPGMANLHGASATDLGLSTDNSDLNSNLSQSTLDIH

For the compound `CC(C)c1cc(N2CCCc3cc(-c4ccc(C(=O)NCC#Cc5ccc6occ(C7CCC(=O)NC7=O)c6c5)nc4)ncc32)cc2c1n(C)c(=O)n2C` (stereo not shown) [Example A100, N-(3-(3-(2,6-dioxo-piperidin-3-yl)benzofuran-5-yl)prop-2-yn-1-yl)-5-(1-(7-isopropyl-1,3-dimethyl-2-oxo-2,3-dihydro-1H-benzo [d]imidazol-5-yl)-1,2,3,4-tetrahydro-1,7-naphthyridin-6-yl)picolinamide], on CBP, the DC50 (commonly the concentration giving 50% degradation) fell in the range of 10 to 99 nM and the Dmax (as a rule, the greatest extent of degradation seen) was 20 to 39%. Moreover, on p300, the greatest degradation seen (Dmax) is greater than 80% and the DC50 was 1 to 9.9 nM.

`CN1CCN(c2nc(-c3cccc4cc(-c5ccc(C(=O)NCC#Cc6ccc7occ(C8CCC(=O)NC8=O)c7c6)nc5)ncc34)cc3c2n(C)c(=O)n3C)CC1` (stereo not shown) [Example A102, 5-(8-(1,3-dimethyl-4-(4-methylpiperazin-1-yl)-2-oxo-2,3-dihydro-1H-imidazo[4,5-c]pyridin-6-yl)iso-quinolin-3-yl)-N-(3-(3-(2,6-dioxopiperidin-3-yl)benzofuran-5-yl)prop-2-yn-1-yl) picolinamide]: at CBP, the half-maximal degradation concentration (DC50) is greater than 1000 nM and the Dmax was less than 20%. Besides, on p300, the maximal degradation (Dmax) is greater than 80% and the half-maximal degradation concentration (DC50) was less than 1 nM.

As to `CCn1c(=O)n(C)c2c(N3CCOCC3)nc(-c3cccc4cc(-c5ccc(C(=O)NCC#Cc6ccc7occ(C8CCC(=O)NC8=O)c7c6)nc5)ncc34)cc21` (stereo not shown) [Example A108, N-(3-(3-(2,6-dioxo-piperidin-3-yl)benzofuran-5-yl)prop-2-yn-1-yl)-5-(8-(1-ethyl-3-methyl-4-morpholino-2-oxo-2,3-dihydro-1H-imidazo[4,5-c]pyridin-6-yl)isoquinolin-3-yl)picolinamide], on CBP, the DC50 is greater than 1000 nM and the maximal degradation (Dmax) was less than 20%. On p300, the Dmax was greater than 80% and the DC50 fell in the range of 1 to 9.9 nM.

With `Cc1cc(-c2cc3c(cc2F)N(c2ccc4c(c2)n(C)c(=O)n4C)CCO3)cnc1C(=O)NCC#Cc1ccc2occ(C3CCC(=O)NC3=O)c2c1` (stereo not shown) [Example A111, 5-(4-(1,3-dimethyl-2-oxo-2,3-dihydro-1H-benzo[d]imidazol-5-yl)-6-fluoro-3,4-dihydro-2H-benzo[b] [1,4]oxazin-7-yl)-N-(3-(3-(2,6-dioxo-piperidin-3-yl)benzofuran-5-yl)prop-2-yn-1-yl)-3-methylpicolinamide], at CBP, the half-maximal degradation concentration (DC50) is greater than 1000 nM and the Dmax is less than 20%. On p300, the Dmax is greater than 80% and the DC50 was 10 to 99 nM.

At CBP, `Cn1c(=O)n(C)c2c(N3CC(O)C3)nc(-c3cccc4cc(-c5ccc(C(=O)NCC#Cc6ccc7occ(C8CCC(=O)NC8=O)c7c6)nc5)ncc34)cc21` (stereo not shown) [Example A115, N-(3-(3-(2,6-dioxo-piperidin-3-yl)benzofuran-5-yl)prop-2-yn-1-yl)-5-(8-(4-(3-hydroxyazetidin-1-yl)-1,3-dimethyl-2-oxo-2,3-dihydro-1H-imidazo[4,5-c]pyridin-6-yl)isoquinolin-3-yl)picolinamide] gave a DC50 greater than 1000 nM and a maximal degradation (Dmax) of less than 20%. Also, on p300, the maximal degradation (Dmax) was greater than 80% and the 50% degradation concentration (DC50) is less than 1 nM.

With `Cn1c(=O)n(C)c2cc(-c3cccc4cc(-c5ccc(C(=O)NCC#Cc6ccc7occ(C8CCC(=O)NC8=O)c7c6)nc5)ncc34)ccc21` (stereo not shown) [Example A119, 5-(8-(1,3-dimethyl-2-oxo-2,3-dihydro-1H-benzo[d]imidazol-5-yl)isoquinolin-3-yl)-N-(3-(3-(2,6-dioxo-piperidin-3-yl)benzofuran-5-yl)prop-2-yn-1-yl)picolinamide], at CBP, the DC50 is greater than 1000 nM and the greatest degradation seen (Dmax) was less than 20%. For the same compound, on p300, the Dmax was greater than 80% and the DC50 fell in the range of 1 to 9.9 nM.

At CBP, `CC(C)c1cc(N2CCOc3cc(-c4ccc(C(=O)NCC#Cc5ccc6occ(C7CCC(=O)NC7=O)c6c5)nc4)ccc32)cc2c1n(C)c(=O)n2C` (stereo not shown) [Example A121, N-(3-(3-(2,6-dioxo-piperidin-3-yl)benzofuran-5-yl)prop-2-yn-1-yl)-5-(4-(7-isopropyl-1,3-dimethyl-2-oxo-2,3-dihydro-1H-benzo [d]imidazol-5-yl)-3,4-dihydro-2H-benzo [b][1,4]oxazin-7-yl)picolinamide] gave a DC50 greater than 1000 nM and a maximal degradation (Dmax) of less than 20%. At p300, this compound gave a Dmax of 60 to 79% and a DC50 of 10 to 99 nM.

On to `CN1CCN(c2ccc3c(c2)n(C)c(=O)n3C)c2cnc(-c3ccc(C(=O)NCC#Cc4ccc5occ(C6CCC(=O)NC6=O)c5c4)nc3)nc21` (stereo not shown) [Example A122, 5-(5-(1,3-dimethyl-2-oxo-2,3-dihydro-1H-benzo[d]imidazol-5-yl)-8-methyl-5,6,7,8-tetrahydropteridin-2-yl)-N-(3-(3-(2,6-dioxopiperidin-3-yl)benzofuran-5-yl)prop-2-yn-1-yl)picolinamide], for which the half-maximal degradation concentration (DC50) at CBP is greater than 1000 nM; on p300, less than 1 nM. The Dmax at CBP was less than 20%; at p300 it was greater than 80%.

Consider `Cn1c(=O)n(C)c2c(N3CCC(O)CC3)nc(-c3cccc4cc(-c5ccc(C(=O)NCC#Cc6ccc7occ(C8CCC(=O)NC8=O)c7c6)nc5)ncc34)cc21` (stereo not shown) [Example A124, N-(3-(3-(2,6-dioxo-piperidin-3-yl)benzofuran-5-yl)prop-2-yn-1-yl)-5-(8-(4-(4-hydroxypiperidin-1-yl)-1,3-dimethyl-2-oxo-2,3-dihydro-1H-imidazo[4,5-c]pyridin-6-yl)isoquinolin-3-yl)picolinamide], for which, on CBP, the DC50 is greater than 1000 nM and the Dmax is less than 20%. At p300, this compound displayed a Dmax greater than 80% and a DC50 of less than 1 nM.

At CBP, `Cn1c(=O)n(C)c2c(N3CCOCC3)cc(N3CCCc4nc(-c5ccc(C(=O)NCC#Cc6ccc7occ(C8CCC(=O)NC8=O)c7c6)nc5)ncc43)cc21` (stereo not shown) [Example A127, 5-(5-(1,3-dimethyl-7-morpholino-2-oxo-2,3-dihydro-1H-benzo [d]imidazol-5-yl)-5,6,7,8-tetrahydro-pyrido[3,2-d]pyrimidin-2-yl)-N-(3-(3-(2,6-dioxopiperidin-3-yl)benzofuran-5-yl)prop-2-yn-1-yl)picolinamide] displayed a half-maximal degradation concentration (DC50) greater than 1000 nM and a Dmax of less than 20%. For the same compound, on p300, the greatest degradation seen (Dmax) is greater than 80% and the 50% degradation concentration (DC50) was less than 1 nM.

Consider `Cn1c(=O)n(C)c2cc(N3CCCc4nc(-c5ccc(C(=O)NCC#Cc6ccc7occ(C8CCC(=O)NC8=O)c7c6)nc5)ncc43)ccc21` (stereo not shown) [Example A132, 5-(5-(1,3-dimethyl-2-oxo-2,3-dihydro-1H-benzo[d]imidazol-5-yl)-5,6,7,8-tetrahydropyrido[3,2-d]pyrimidin-2-yl)-N-(3-(3-(2,6-dioxo-piperidin-3-yl)benzofuran-5-yl)prop-2-yn-1-yl)picolinamide], for which, at CBP, the half-maximal degradation concentration (DC50) is greater than 1000 nM and the Dmax is less than 20%. Moreover, on p300, the greatest degradation seen (Dmax) was greater than 80% and the half-maximal degradation concentration (DC50) fell in the range of 1 to 9.9 nM.

At CBP, `CC(C)c1cc(N2CCCc3nc(-c4ccc(C(=O)NCC#Cc5ccc6occ(C7CCC(=O)NC7=O)c6c5)nc4)ncc32)cc2c1n(C)c(=O)n2C` (stereo not shown) [Example A133, N-(3-(3-(2,6-dioxo-piperidin-3-yl)benzofuran-5-yl)prop-2-yn-1-yl)-5-(5-(7-isopropyl-1,3-dimethyl-2-oxo-2,3-dihydro-1H-benzo [d]imidazol-5-yl)-5,6,7,8-tetrahydro-pyrido[3,2-d]pyrimidin-2-yl)picolinamide] showed a 50% degradation concentration (DC50) of 100 to 999 nM and a Dmax of less than 20%. At p300, this compound gave a Dmax greater than 80% and a DC50 of 1 to 9.9 nM.

On CBP, `Cn1c(=O)n(C)c2c(N3CC4(COC4)C3)nc(-c3cccc4cc(-c5ccc(C(=O)NCC#Cc6ccc7occ(C8CCC(=O)NC8=O)c7c6)nc5)ncc34)cc21` (stereo not shown) [Example A136, 5-(8-(1,3-dimethyl-2-oxo-4-(2-oxa-6-azaspiro[3.3]heptan-6-yl)-2,3-dihydro-1H-imidazo[4,5-c]pyridin-6-yl)isoquinolin-3-yl)-N-(3-(3-(2,6-dioxopiperidin-3-yl)benzofuran-5-yl)prop-2-yn-1-yl)picolinamide] had a DC50 greater than 1000 nM and a Dmax of less than 20%. On p300, this compound yielded a Dmax greater than 80% and a DC50 of 1 to 9.9 nM.

On CBP, `Cn1c(=O)n(C)c2c(N3CCOCC3)nc(-c3cccc4cc(-c5ccc(C(=O)NCC#Cc6ccc7occ(C8CCC(=O)NC8=O)c7c6)nc5)ncc34)cc21` (stereo not shown) [Example A138, 5-(8-(1,3-dimethyl-4-morpholino-2-oxo-2,3-dihydro-1H-imidazo[4,5-c]pyridin-6-yl)isoquinolin-3-yl)-N-(3-(3-(2,6-dioxopiperidin-3-yl)benzofuran-5-yl)prop-2-yn-1-yl)picolinamide] gave a half-maximal degradation concentration (DC50) greater than 1000 nM and a Dmax of less than 20%. On p300, this compound registered a Dmax greater than 80% and a DC50 of less than 1 nM.

At CBP, `CN1CCN(c2ccc3c(c2)n(C)c(=O)n3C)c2cnc(-c3ccc(C(=O)NCC#Cc4ccc5occ(C6CCC(=O)NC6=O)c5c4)nc3)cc21` (stereo not shown) [Example A139, 5-(4-(1,3-dimethyl-2-oxo-2,3-dihydro-1H-benzo[d]imidazol-5-yl)-1-methyl-1,2,3,4-tetrahydropyrido[3,4-b]pyrazin-7-yl)-N-(3-(3-(2,6-dioxo-piperidin-3-yl)benzofuran-5-yl)prop-2-yn-1-yl)picolinamide] displayed a DC50 greater than 1000 nM and a Dmax of less than 20%. At p300, this compound yielded a Dmax greater than 80% and a 50% degradation concentration (DC50) of less than 1 nM.

For the compound `Cn1c(=O)n(C)c2c(N3CC(C)(O)C3)nc(-c3cccc4cc(-c5ccc(C(=O)NCC#Cc6ccc7occ(C8CCC(=O)NC8=O)c7c6)nc5)ncc34)cc21` (stereo not shown) [Example A145, N-(3-(3-(2,6-dioxo-piperidin-3-yl)benzofuran-5-yl)prop-2-yn-1-yl)-5-(8-(4-(3-hydroxy-3-methylazetidin-1-yl)-1,3-dimethyl-2-oxo-2,3-dihydro-1H-imidazo[4,5-c]pyridin-6-yl)isoquinolin-3-yl)picolinamide], the values for the DC50 on CBP and at p300 were greater than 1000 nM and less than 1 nM, respectively. In addition, the maximal degradation (Dmax) is less than 20% on CBP and greater than 80% at p300.
